From patent US5498427A, “Solutions for the perfusion, preservation and reperfusion of organs” (Pasteur Merieux Serums et Vaccines, priority 1990, dated 1996)

How the values were obtained:
[1] = test system: isolated hearts from Sprague-Dawley rats; experiment: Test of solutions containing NAC on isolated rat heart preparations (Langendorff, arrest, 5 h cold storage, 1 h ischemia, 1 h reperfusion); conditions: for Left ventricular pressure developed, Reperfusion: after ischemia and reperfusion; for Left ventricular pressure developed, Reperfusion / Coronary flow rate, Reperfusion / Coronary flow rate, Normal / Left ventricular pressure developed, Normal: N = 10; for Coronary flow rate, Normal / Left ventricular pressure developed, Normal: pre-ischaemic reference value
Method: Fifty isovolumic preparations of isolated hearts from Sprague-Dawley rats weighing 300 grams were used, the hearts being connected rapidly to a non-recirculating Langendorff perfusion column to establish a retrograde perfusion using an oxygenated (95% O2, 5% CO2) Krebs-Henseleit buffer, to establish a retrograde perfusion at a pressure of 100 cm of water. The left ventricular pressure, its derivative and the end-diastolicpressure were recorded continuously. The coronary flow rate was measured by noting the venous coronary flow rate. Left ventricular stimulation was maintained at a frequency of 320/min.
After a twenty-minute monitoring period, thirty hearts were arrested by perfusion using the preservation and perfusion solution at 4° C., and then rapidly placed in glass containers filled with the same solution and surrounded by ice. The hearts were maintained therein for five hours, with a mean myocardial temperature of 2° C. at the end of storage. The hearts were then reconnected to the perfusion circuit and subjected to an additional ischemia for one hour at between 15° and 18° C. The hearts were divided into three groups, including a control group which received a first perfusion of a solution which was identical but devoid of NAC on establishment of the post-storage ischemia and an additional perfusion of 25 ml of this solution immediately before unclamping the aorta, the perfusions being performed at 4° C. and 28° C., respectively. […] In the third group, a solution containing NAC at 28° C. was distributed in a single dose at the end of the ischemia. In this latter group, the NAC concentration was adjusted to 0.072 M so that all the hearts treated received the same amount of this substance, that is to say approximately 1.80 millimoles. The bottles containing the solutions as well as the connecting tubes were protected from light in order to avoid oxidation. In all three groups, the perfusions after storage were delivered at a pressure of 30 cm of water. After a period of ischemia of six hours, the hearts were reperfused for one hour at 37° C.
For all three groups, the stimulation was stopped and the left intraventricular balloon deflated during the period of ischemia so as to simulate clinical conditions. After reperfusion, stimulation was reestablished. Isovolumetric measurements of the coronary flow rate, the left ventricular pressure, its first derivative and the telediastolic pressure were performed three times during the monotoring period and then at 5, 30, 45 and 60 minutes during the reperfusion.

[2] = hypothermic storage conditions in usual bags, periods up to 3 hours
Source text: In one embodiment the solution is stored, as a whole, in the container.

[3] = Group II, multidose solution enriched with NAC, versus Groups I and III
[4] = Second group, (0.04 M) NAC multidose
[5] = Third group, (0.07 M) NAC single dose at end of ischemia

Row | Compound | Left ventricular diastolic pressure: postischemic contracture ([1]; Group II, multidose solution enriched with NAC) | Left ventricular pressure developed throughout the reperfusion period [1, 3] | Postischemic derivative dP/dt [1, 3] | Left ventricular diastolic pressure: compliance ([1]; Group III, reperfusion supplemented with NAC only at end of ischemia) | Left ventricular pressure loss after ischemia and reperfusion ([1]; Group III, reperfusion supplemented with NAC only at end of ischemia, versus Group II) | Left ventricular pressure developed, Reperfusion [1, 4] | Coronary flow rate, Reperfusion ([1]; Second group, (0.04 M) NAC multidose, after sixty minutes of reperfusion) | Coronary flow rate, Normal [1, 4] | Left ventricular pressure developed, Normal [1, 4] | Left ventricular pressure developed, Reperfusion [1, 5] | Coronary flow rate, Reperfusion ([1]; Third group, (0.07 M) NAC single dose at end of ischemia, after sixty minutes of reperfusion) | Coronary flow rate, Normal [1, 5] | Left ventricular pressure developed, Normal [1, 5] | Recovery of coronary flow rate ([1]; groups treated with NAC versus control, after sixty minutes of reperfusion) | Rate of glutathione oxydation on storage [2]
1 | CC(=O)N[C@@H](CS)C(=O)O [NAC, N-acetylcysteine] | significantly decreased | significantly greater pressure was developed | largest values | significant loss of compliance | significantly greater pressure losses | 101.5 ± 3.4 mm Hg | 12.1 ± 0.5 mL/min | 14.8 ± 0.6 mL/min | 126.4 ± 2.8 mm Hg | 69.8 ± 3.6 mm Hg | 13.4 ± 0.4 mL/min | 16.0 ± 0.5 mL/min | 129.7 ± 2.0 mm Hg | best recovery of coronary flow rate | 
2 | N[C@@H](CCC(=O)N[C@@H](CS)C(=O)NCC(=O)O)C(=O)O [glutathione] |  |  |  |  |  |  |  |  |  |  |  |  |  |  | only minimal rate of glutathione oxydation
